The subject of one assay is MDAMB468.1. Kind of assay: Cell Titer Glo (CTG) proliferation assay, MDA-MB-468. The class given is cell-based. To be noted: Homo sapiens, MDA-MB-468; MDAMB468.1 cells, 72.0 hrs.; read-out: AVE CTG Proliferation MDAMB468.1 72.0 hrs. The protocol:
(§1) Seed cells in 40 μL of cell culture media into each well of 384-well cell culture plate, spin them at room temperature at 1,000 RPM for 1 minute and then transfer the plates into 37° C. 5% CO2 incubator overnight. Next day, treat cells with 40 nL of diluted compound and return to incubator. After compound treatment for 3 days, Add 30 μL of CellTiter-Glo reagent (Promega) into each well to be detected. Then place the plates at room temperature for 30 min followed by reading on EnVision. Inhibition activity calculated as % DMSO=100×(LumSample-Lum low control)/(Lum high control-Lum low control) where high control is from cells treated with 0.1% DMSO and Low control obtained from PBS only. Use XLFit (equation 201) to calculate IC50 (A+ ((B−A)/(1[…]((x/C)^D)))) where A: Bottom, B: Top, C: IC50, D: Slope.

The next assay relates to KU1919.1. The experiment in a line: Cell Titer Glo (CTG) proliferation assay, KU1919. The class given is cell-based. To be noted: Homo sapiens, KU-19-19; KU1919.1 cells, 72.0 hrs.; read-out: AVE CTG Proliferation KU1919.1 72.0 hrs. The protocol:
as §1

On to `NC1(C(=O)N[C@@H](CCN2CCN(C(=O)CN3CCC(OC4CCN(C(=O)c5cccc(C6CCCN(C(=O)C7CC7)C6)c5)CC4)CC3)CC2)c2ccc(Cl)cc2)CCN(c2ncnc3[nH]ccc23)CC1` (stereo partly shown) [Compound I-255], for which the IC50 in the assay on MDAMB468.1 and in the assay on KU1919.1 was over 10 µM in each case.

Regarding `C[C@@H]1C[C@@H](O)c2ncnc(N3CCN(C(=O)[C@H](CNC4CCN(CC5CCN(C(=O)[C@H](NC(=O)c6cccc(C7CCCN(C(=O)C8CC8)C7)c6)C6CCCCC6)CC5)CC4)c4ccc(Cl)cc4)CC3)c21` (stereo partly shown) [Compound I-214], the IC50 in the assay on MDAMB468.1 and with KU1919.1 was 1 to 5 µM throughout.

On to `C[C@@H]1C[C@@H](O)c2ncnc(N3CCN(C(=O)[C@H](CNCCNC(=O)CN4CCC(CN5CCNCC5)CC4)c4ccc(Cl)cc4)CC3)c21` [Compound I-328], for which the IC50 in the assay with MDAMB468.1 and in the assay with KU1919.1 was over 10 µM in each case.

As for `C[C@@H]1C[C@@H](O)c2ncnc(N3CCN(C(=O)[C@H](CNCCNC(=O)CN4CCC(CN5CCN(C(=O)[C@H](NC(=O)c6cccc(C7CCCN(C(=O)CNC8CC8)C7)c6)C6CCCCC6)CC5)CC4)c4ccc(Cl)cc4)CC3)c21` (stereo partly shown) [Compound I-205], the values for the IC50 in the assay with MDAMB468.1 and with KU1919.1 were over 10 µM and 5 to 10 µM, respectively.

Take `NC1(C(=O)N[C@@H](CCN2CCN(C(=O)CN3CCC(OC4CCN(C(=O)c5cc(C6CCCN(C(=O)CNCc7ccc(F)cc7F)C6)ccc5F)CC4)CC3)CC2)c2ccc(Cl)cc2)CCN(c2ncnc3[nH]ccc23)CC1` (stereo partly shown) [Compound I-223]: the IC50 in the assay on MDAMB468.1 and with KU1919.1 was 1 to 5 µM throughout.

Take `CCc1cccc(-c2cnc(C(=O)N3CCN(CC45CCC(NCC(=O)NCCNC[C@@H](C(=O)N6CCN(c7ncnc8c7[C@H](C)C[C@H]8O)CC6)c6ccc(Cl)cc6)(CC4)CO5)CC3)c(NC(C)=O)c2)c1` [Compound I-197]: the values for the IC50 in the assay with MDAMB468.1 and in the assay with KU1919.1 were 1 to 5 µM and 5 to 10 µM, respectively.

As to `CCc1cccc(-c2cnc(C(=O)NCCOCCNCC(=O)NCCN(C[C@@H](C(=O)N3CCN(c4ncnc5c4[C@H](C)C[C@H]5O)CC3)c3ccc(Cl)cc3)C(C)C)c(N)c2)c1` [Compound I-217], the IC50 in the assay on MDAMB468.1 and in the assay with KU1919.1 was 1 to 5 µM in each case.

As for `C[C@@H]1C[C@@H](O)c2ncnc(N3CCN(C(=O)[C@H](CNCCNC(=O)CNC45CCC(CN6CCN(C(=O)[C@H](NC(=O)c7cccc(C8CCCN(C(=O)C9CC9)C8)c7)C7CCCCC7)CC6)(CC4)OC5)c4ccc(Cl)cc4)CC3)c21` (stereo partly shown) [Compound I-215], the IC50 in the assay on MDAMB468.1 and in the assay on KU1919.1 was over 10 µM throughout.

Consider `CCc1cccc(-c2cnc(C(=O)NCCOCCNCC[C@H](NC(=O)C3(N)CCN(c4ncnc5[nH]ccc45)CC3)c3ccc(Cl)cc3)c(N)c2)c1` [Compound I-183], for which the IC50 in the assay with MDAMB468.1 and in the assay on KU1919.1 was 5 to 10 µM throughout.

Turning to `CCc1cccc(-c2cnc(C(=O)NCCOCCNCC[C@H](NC(=O)C3(N)CCN(c4ncnc5[nH]ccc45)CC3)c3ccc(Cl)cc3)c(NC(=O)OC(C)(C)C)c2)c1` [Compound I-301], the IC50 in the assay on MDAMB468.1 and with KU1919.1 was 1 to 5 µM in each case.

`CCc1cccc(-c2cnc(C(=O)NCCOCCNCC[C@H](NC(=O)C3(N)CCN(c4ncnc5[nH]ccc45)CC3)c3ccc(Cl)cc3)c(NC(C)=O)c2)c1` [Compound I-184]: the IC50 with MDAMB468.1 is over 10 µM; with KU1919.1, 5 to 10 µM.

As for `CC(C)N(CCNC(=O)CN1CCC(CN2CCN(C(=O)[C@H](NC(=O)c3cccc(C4CCCN(C(=O)CNCc5ccc(F)cc5F)C4)c3)C3CCCCC3)CC2)CC1)C[C@@H](C(=O)N1CCN(c2ncnc3c2[C@H](C)C[C@H]3O)CC1)c1ccc(Cl)cc1` (stereo partly shown) [Compound I-200], the IC50 with MDAMB468.1 and in the assay with KU1919.1 was 1 to 5 µM in each case.

Turning to `CCc1cccc(-c2cnc(C(=O)N3CCC(OC4CCN(CC(=O)NCCNC[C@@H](C(=O)N5CCN(c6ccnc7c6[C@H](C)C[C@H]7O)CC5)c5ccc(Cl)cc5)CC4)CC3)c(NC(=O)OC(C)(C)C)c2)c1` [Compound I-304], the IC50 in the assay on MDAMB468.1 and with KU1919.1 was 1 to 5 µM in each case.

With `NC1(C(=O)N[C@@H](CCN2CCC(OC3CCN(C(=O)c4cccc(C5CCCN(C(=O)CNCc6ccc(F)cc6F)C5)c4)CC3)CC2)c2ccc(Cl)cc2)CCN(c2ncnc3[nH]ccc23)CC1` (stereo partly shown) [Compound I-253], the IC50 with MDAMB468.1 and in the assay on KU1919.1 was 1 to 5 µM throughout.

Values taken from patent US20250171465A1, “AKT INHIBITORS” (Stablix, Inc., priority 2023, published 2025).
